For series [1] the following is noted: HOBr versus HOCl, methionine to dehydromethionine; cited from earlier work.
Series [2] concerns the target T1, collagen IV NC1 hexamer (Mus musculus, UniProt P02463+P08122).
T1 sequence (P02463 1445-1669 limits assumed): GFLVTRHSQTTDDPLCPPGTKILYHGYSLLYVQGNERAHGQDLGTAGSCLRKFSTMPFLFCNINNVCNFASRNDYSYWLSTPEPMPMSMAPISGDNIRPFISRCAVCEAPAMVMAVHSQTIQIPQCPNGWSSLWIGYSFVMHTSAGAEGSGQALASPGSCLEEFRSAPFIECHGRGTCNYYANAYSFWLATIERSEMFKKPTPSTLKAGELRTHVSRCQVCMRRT
T1 sequence (P08122 1484-1707 limits assumed): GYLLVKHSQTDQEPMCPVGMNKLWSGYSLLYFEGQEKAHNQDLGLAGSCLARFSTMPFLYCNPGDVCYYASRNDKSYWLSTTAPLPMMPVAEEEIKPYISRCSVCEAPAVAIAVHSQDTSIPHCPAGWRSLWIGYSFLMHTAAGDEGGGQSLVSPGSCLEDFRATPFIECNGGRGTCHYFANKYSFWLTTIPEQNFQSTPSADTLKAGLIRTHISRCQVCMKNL
Nature of the series: Hypohalous acid oxidation of purified uncrosslinked NC1 hexamer. As to conditions: for crosslinked dimeric subunits (percentage of dimeric subunit): 500 nM NC1 hexamer, 5 μM hypohalous acid, 30 min at 37° C. (FIG. 4A).
Method: (FIG. 4A) Five hundred nanomolar collagen IV NC1 hexamer (3 μM potential crosslinks) was incubated alone (control) or with 5 μM hypochlorous (HOCl) or hypobromous acid (HOBr) for 30 min at 37° C. […] (FIGS. 4B-D) 16 nM myeloperoxidase (MPO) (FIG. 4B), eosinophil peroxidase (EPO) (FIG. 4C) or lactoperoxidase (LPO) (FIG. 4D) were reacted with 500 nM NC1 hexamer (3 μM potential crosslinks) for varying time points in 1×PBS with or without 10 μM H2O2. In the case of LPO, all reactions proceeded for 60 min. Collagen IV-sulfilimine crosslink content was visualized after SDS-PAGE and Coomassie blue staining of the reactions. Each gel is representative of three independent experiments. PHG, phloroglucinol; MW, molecular weight.
FIGS. 9A-D. Chemical mechanism of sulfilimine formation within the NC1 hexamer. (FIG. 9A) Purified uncrosslinked NC1 hexamer (5 μM) was reacted for 5 minutes at 37° with the indicated amounts of hypohalous acids and analyzed by SDS-PAGE. […] Values represent mean±S.D. (n=3). (FIG. 7B) Uncrosslinked NC1 hexamer (1.3 μM) in Br-Free PBS was preoxidzed with indicated amounts of HOCl for 1 min at 37 C, followed by post-oxidation with the addition of 8 mol eq. HOBr (or HOCl as a control) which was reacted for an additional minute at 37° C., then quenched with 20 mM methionine. Gel is representative of two experiments (FIG. 9C) XIC analysis of the residual monomeric NC1 subunit following HOCl oxidation (10 mol eq) compared to input NC1 monomer after SDS-PAGE and in-gel trypsin digestion. ^16O addition to the methionine residues was confirmed by MS3 analysis. (FIG. 9D) Met93 oxidation pathway consistent with experimental data and the resultant enthalphic landscape for S═N bond formation within the NC1 hexamer.
(FIG. 15) Fifty micromolar of hypohalous oxidants were added to 5 μM uncrosslinked NC1 domains, and reacted for 5 minutes at 37° C. before quenching by adding L-methionine to 1 mM final concentration. […] Experiments were run in triplicate and analyzed by 12% non-reducing SDS-PAGE and ImageJ.
The efficiency of HOBr as a reagent was compared to other hypohalous acids, during a 5′ reaction with uncrosslinked hexamers containing 5 μM NC1 domains.
The inventors therefore tested the molar efficiency of oxidation of purified uncrosslinked NC1 hexamer with HOCl and HOBr (FIG. 9A). […] To test this, they pretreated uncrosslinked NC1 hexamer with varying concentrations of HOCl, then treated with HOBr. […] As an independent approach to testing the dead-end sulfoxide hypothesis, the inventors pretreated NC1 hexamer with escalating levels of H2O2, a reagent known to generate methionine sulfoxides (Liang et al., 2012). […] They next decided to directly visualize the peptide containing Met93, the S donor of the S═N bond, within the residual monomeric NC1 fraction after HOCl oxidation and compare its oxidation status to untreated NC1 hexamer.

The target of a further series is T2, Lysyl oxidase (Bos taurus, UniProt P33072).
T2 sequence (P33072 170-418): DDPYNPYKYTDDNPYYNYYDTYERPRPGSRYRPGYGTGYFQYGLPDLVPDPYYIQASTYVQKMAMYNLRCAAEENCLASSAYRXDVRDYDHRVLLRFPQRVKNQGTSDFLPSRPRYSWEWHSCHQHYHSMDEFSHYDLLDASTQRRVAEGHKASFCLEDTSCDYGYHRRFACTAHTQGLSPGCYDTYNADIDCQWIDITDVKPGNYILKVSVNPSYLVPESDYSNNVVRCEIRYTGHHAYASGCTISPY
As to conditions: Tang et al., 1983; cited from earlier work.

A further series deals with PFHR-9 cells. The series can be described thus: Collagen IV sulfilimine crosslink formation in PFHR-9 cell culture (NC1 hexamer, SDS-PAGE). The class given is cell-based, mouse. As to conditions: inhibitor present during cellular deposition of basement membrane; FIG. 2A: PHG 50 μM, MMI 1 mM, KI 10 mM, 3-AT 10 mM, BAPN 500 μM, putrescine 2.5 mM.
The next series deals with transglutaminase. Conditions: Candi et al., 1995; cited from earlier work.
Series [3] is described as follows: Peroxidase activity of media from transfected cells (tetramethylbenzidine colorimetric assay). The class given is biochemical. Conditions: media of transiently transfected HEK293T cells. The method, then:
FIGS. 5A-D—Peroxidasin uniquely crosslinks native collagen IV networks. (FIG. 5A) Experimental design of ‘overlay’ experiments. PFHR-9 cells were grown in the presence of phloroglucinol (PHG; 50 μM) to deposit uncrosslinked collagen IV (Col IV) networks. The cells were then removed, and the basement membrane was extracted with 4 M guanidine (Gdn) to inactivate endogenous peroxidasin. Cells stably transfected with human peroxidasin (PXDN) or untransfected HEK293 cells (WT HEK) were plated on top of the PFHR9 basement membrane, which was subsequently analyzed for collagen IV crosslink content. (FIG. 5B) Collagen IV-sulfilimine bond formation in the indicated experimental conditions as shown by stained SDS-PAGE gel. Two (WT HEK cells) or three (PXDN, with or without PHG) out of five independent experiments are shown. MW, molecular weight. (FIG. 5C) Coomassie blue-stained gel of collagen IVNC1 hexamers isolated from uncrosslinked PFHR-9 basement membrane overlaid with HEK293T cells transiently transfected with human peroxidasin cDNA, mouse myeloperoxidase cDNA (MPO), mouse lactoperoxidase cDNA (LPO) or empty vector (Mock). (FIG. 5D) Media from PXDN, MPO, LPO and mock-transfected cells were assayed for peroxidase activity using a tetramethylbenzidine-based colorimetric assay. Activity was expressed relative to peroxidasin (A650 of given peroxidase divided by A650 for peroxidasin). […]

The nature of series [4]: Hypohalous acid production by peroxidases (taurine haloamine trapping). Conditions: 1×PBS plus 100 μM NaBr or without added Br—. The class given is biochemical. The method, then:
(§1) (FIG. 3A) SDS-PAGE of reactions consisting of 16 nM purified human peroxidasin (PXDN), 500 nM monomeric NC1 hexamer (3 μM potential crosslinks) and 10 μM H2O2 in 1×PBS. Control reactions without H2O2 or in the presence of the peroxidase inhibitor phloroglucinol (PHG; 50 μM) were also conducted. D represents crosslinked dimeric NC1 subunits, and M denotes uncrosslinked monomeric subunits. MW, molecular weight. (FIG. 3B) Coomassie blue-stained gel after SDS-PAGE of collagen IVNC1 hexamer is shown to illustrate relative amounts of sulfilimine-crosslinked dimeric (D) and uncrosslinked monomeric (M) subunits after incubation of uncrosslinked PFHR-9 basement membranes in varying buffer halide concentrations (Br— or Cl— as K+ salt) with or without 1 mM H2O2. (FIG. 3C) PXDN-mediated hypohalous acid (HOX) production expressed as nmol hypohalous acid generated per nmol enzyme per min, measured in 1×PBS plus 100 μM NaBr. Values represent mean±s.e.m. (n=3). (FIG. 3D) HOCl production measured directly in 1×PBS without added Br—. Values denote mean±s.e.m. (n=4). […] (FIG. 3E) HOX production, measured in nmol HOX generated per nmol enzyme per min for myeloperoxidase (MPO), eosinophil peroxidase (EPO) or LPO in 1×PBS plus 100 μM NaBr. Values represent mean±s.e.m. (n=3).
Hypohalous acids were trapped as stable taurine haloamines, which oxidize tetramethylbenzidine to yield a colorimetric measure of hypohalous acid concentration and production (Dypbukt et al., 2005).
Animal heme peroxidases, such as peroxidasin, myeloperoxidase, eosinophil peroxidase and lactoperoxidase, catalyze oxidative reactions using distinct halogenation and peroxidase cycles (Obinger, 2006). Both begin with hydrogen peroxide oxidation of the prosthetic heme iron to form an intermediate denoted compound I (Obinger, 2006). Compound I may oxidize halides into their respective hypohalous acids (or related oxidants in equilibrium), which may directly or indirectly halogenate susceptible moieties. Alternatively, compound I undergoes sequential reduction to form single electron-free radicals of energetically favorable substrates in the peroxidase cycle. Both pathways eventually regenerate reduced, native enzyme (Obinger, 2006). To determine whether peroxidasin forms sulfilimine bonds using a halogenation cycle, the inventors first tested whether peroxidasin crosslinks collagen IV in the absence of halides.

The test system of series [5] is collagen IV NC1 hexamer. Nature of the series: Purified peroxidases reacted with uncrosslinked NC1 hexamer and H2O2. Conditions: 16 nM enzyme, 500 nM NC1 hexamer, 10 μM H2O2, 1×PBS. The class given is biochemical, mouse. The method, then: as §1
PHG, phloroglucinol; MW, molecular weight.
If peroxidasin uses hypohalous acids as intermediates to form sulfilimine bonds, these intermediates should recapitulate the reaction when directly added to purified, uncrosslinked collagen IV NC1 hexamer. […] Alternatively, other peroxidasesis provided to form reactive hypohalous acids.

On to `OBr` [HOBr, hypobromous acid], for which the “effectiveness at forming a sulfilimine bond” value in series [1] is “approximately twice as effective as HOCl”. The “crosslinked dimeric subunits (percentage of dimeric subunit)” value on collagen IV NC1 hexamer [2] is “increased significantly”; on collagen IV NC1 hexamer [2] (listed as hypobromous acid), “yielded crosslinked dimeric subunits”. In addition, on collagen IV NC1 hexamer [2] (5 μM NC1 hexamer, 5 minutes at 37° (FIG. 9A)), the “dimer formation, molar efficiency of oxidation” value is “efficiently formed dimers even at parity with NC1 concentrations”. Moreover, the “efficiency versus other hypohalous acids in forming sulfilimine bonds” value on collagen IV NC1 hexamer [2] (5 min reaction, 5 μM NC1 domains) is reported as “superior to all other examined reagents”. In addition, the “S═N bond formation as share of total Met93 oxidized” value on collagen IV NC1 hexamer [2] (oxidation event 1 (OE1), S—Cl or S—Br halosulfonium intermediate) was determined as 56.1%.

Usually IC50 stands for the concentration that inhibits the measured activity by half. On to `N#CCCN` [β-aminopropionitrile], for which the IC50 at Lysyl oxidase was 3 to 8 µM. For the same molecule, in the series with PFHR-9 cells, the “formation of collagen IV crosslinks” value is listed as “had no effect”.

For orientation: Km means the concentration of substrate that gives half-maximal velocity. Consider `NCCCCN` [putrescine], for which the Michaelis constant (Km) in the series with transglutaminase was 26 to 847 µM. Moreover, the “formation of collagen IV crosslinks” value in the series with PFHR-9 cells was “had no effect”.

B1: myeloperoxidase: animal heme peroxidase used as comparator (protein, UniProt P05164 165-745, looked up)
Myeloperoxidase: VTCPEQDKYRTITGMCNNRRSPTLGASNRAFVRWLPAEYEDGFSLPYGWTPGVKRNGFPVALARAVSNEIVRFPTDQLTPDQERSLMFMQWGQLLDHDLDFTPEPAARASFVTGVNCETSCVQQPPCFPLKIPPNDPRIKNQADCIPFFRSCPACPGSNITIRNQINALTSFVDASMVYGSEEPLARNLRNMSNQLGLLAVNQRFQDNGRALLPFDNLHDDPCLLTNRSARIPCFLAGDTRSSEMPELTSMHTLLLREHNRLATELKSLNPRWDGERLYQEARKIVGAMVQIITYRDYLPLVLGPTAMRKYLPTYRSYNDSVDPRIANVFTNAFRYGHTLIQPFMFRLDNRYQPMEPNPRVPLSRVFFASWRVVLEGGIDPILRGLMATPAKLNRQNQIAVDEIRERLFEQVMRIGLDLPALNMQRSRDHGLPGYNAWRRFCGLPQPETVGQLGTVLRNLKLARKLMEQYGTPNNIDIWMGGVSEPLKRKGRVGPLLACIIGTQFRKLRDGDRFWWENEGVFSMQQRQALAQISLPRIICDNTGITTVSKNNIFMSNSYPRDFVNCSTLPALNLASWREAS
In the case of B1, the “enzymatic activity relative to peroxidasin” value in series [3] is recorded as “at least 30 fold”. Moreover, in series [4], the hypohalous acid formation entry is on record as “preferentially formed hypochlorous acid”. The “formation of sulfilimine crosslinks in NC1 hexamer” value in the series on collagen IV NC1 hexamer [5] was “formed sulfilimine crosslinks in collagen IV”.

The values are drawn from patent US10183039B2, “Methods for the production of collagen IV” (Vanderbilt University, priority 2013, dated 2019).
